Measured values reported in patent US9624161B2 (priority 2009, dated 2017).

Experiments:
[1] = test system: men with advanced prostate cancer; experiment: Study 2: Phase 2 trial in men with advanced prostate cancer, Compound IV 1000 or 2000 mg daily versus leuprolide depot; assay type: in vivo, human; details: for Castrated (%) at Day 28 / Castrated (%) on both Day 28 and Day 60 / No. Castrated at Day 28 / No. Castrated on both Day 28 and Day 60: ITT; for Subjects that achieved castration (total T<50 ng/dL) by Day 60: subjects that reached Day 60; for % Reduction on PSA at Day 28 / Mean Free T at Day 28 / Mean Total T at Day 28: subjects castrated on both day 28 and day 60; for Castration (%): patients receiving >14 days; for Median free testosterone: Day 120; for Median increase in SHBG: Day 90
Experimental: This was a prospective, randomized 1:1:1, Phase 2 open-label, multicenter, trial comprised of men with advanced prostate cancer (n=159) initiating ADT with either oral daily doses of 1000 mg Compound IV, oral daily doses of 2000 mg Compound IV, or leuprolide depot (Lupron Depot® 4 month). It was conducted according to the Declaration of Helsinki, approved by appropriate research ethics committees, and each patient provided signed informed consent prior to registration and randomization. Patient demographlics are outlined in Table 24.
The trial required each subject to remain on the study for at least 60 days. […] Subjects that achieved castration by day 60 continued for up to 360 days to assess the safety of Compound IV over this dosing duration and to assess the maintenance of total testosterone levels ≦50 ng/dL.
The major inclusion criteria for the trial were: Males between 45-80 years of age; ECOG ≦2; screening serum total testosterone ≧150 ng/dL; no prior ADT (medical or surgical) unless the subject had been treated with LHRH agent for ≦6 months duration and that treatment was ≧1 years prior to screening.
The primary endpoint of the clinical trial was the proportion of patients that achieve ≦50 ng/dL total testosterone by Day 60. Secondary efficacy endpoints evaluated included serum concentrations of free testosterone, PSA, SHBG, safety and tolerability of Compound IV, incidence and frequency of hot flashes, serum bone turnover markers [bone specific alkaline phosphatase (BSAP) and c-terminal telopeptide (CTX)] and IGF-1 levels, an indicator of insulin resistance.
All serum hormone and PSA measurements were performed by a central laboratory utilizing standard techniques. Serum total testosterone concentrations were determined using a validated liquid chromatography-tandem mass spectrometry (LC/MS-MS) method. This is the assay platform that is current utilized for total testosterone by most major laboratories and provides values which are more accurate at the lower levels of testosterone found in women, children, hypogonadal men, and men on ADT. The percent free testosterone was determined by equilibrium dialysis. Free testosterone concentrations were calculated as the product of (total testosterone by LC/MS/MS) and (free fraction by equilibrium dialysis). This combination of approaches is considered to be the gold standard with which to measure free testosterone with excellent accuracy and validity (sensitivity and specificity).
Hot flash assessments were performed utilising a standard instrument to measure the frequency and severity of hot flashes, and data were compiled at baseline, Day 28 and Day 90. The men reported as experiencing hot flashes were those indicating any in the period between the respective time point and the prior patient visit. CTX (pg/ml) assayed by an electrochemiluminescent immunoassay and BSAP (U/L) assayed by immunoenzymatic methodology were measured as indicators of bone turnover. Serum IGF-1 levels were measured by liquid chromatography/mass spectrometry (LC/MS) at the same time each day (within a +/−60 minute window).
Simple descriptive statistics and graphics were used to present the characteristics of the study population. One way Analysis of Variance (PROC GLM with CONTRAST statement) methods were used to compare total testosterone percent change from baseline to Day 28, Day 60 and Day 90. Kaplan Meier survival analysis was used to estimate the proportion of subjects that reached castrate levels by Day 60 in each treatment arm based upon time to total testosterone of ≦50 ng/dL. Fisher Exact tests were used to compare rate of hot flashes at Day 28 and Day 90 among the two Compound IV and the leuprolide arms. One way ANOVA methods were also used to compare CTX and BSAP changes from baseline to Day 120 between treatment groups. The intent-to-treat (ITT) population consisted of all randomized patients who received at least one dose of Compound IV or leuprolide depot. […]

rat ER-β = target: T1, rat ER-β (Rattus norvegicus, UniProt Q62986); experiment: Transactivation assay (agonist and antagonist modes), HEK-293 cells, ERE-LUC; assay type: cell-based
T1 construct: expressed in transfected cells; host or cells: HEK-293
T1 sequence (Q62986 whole entry): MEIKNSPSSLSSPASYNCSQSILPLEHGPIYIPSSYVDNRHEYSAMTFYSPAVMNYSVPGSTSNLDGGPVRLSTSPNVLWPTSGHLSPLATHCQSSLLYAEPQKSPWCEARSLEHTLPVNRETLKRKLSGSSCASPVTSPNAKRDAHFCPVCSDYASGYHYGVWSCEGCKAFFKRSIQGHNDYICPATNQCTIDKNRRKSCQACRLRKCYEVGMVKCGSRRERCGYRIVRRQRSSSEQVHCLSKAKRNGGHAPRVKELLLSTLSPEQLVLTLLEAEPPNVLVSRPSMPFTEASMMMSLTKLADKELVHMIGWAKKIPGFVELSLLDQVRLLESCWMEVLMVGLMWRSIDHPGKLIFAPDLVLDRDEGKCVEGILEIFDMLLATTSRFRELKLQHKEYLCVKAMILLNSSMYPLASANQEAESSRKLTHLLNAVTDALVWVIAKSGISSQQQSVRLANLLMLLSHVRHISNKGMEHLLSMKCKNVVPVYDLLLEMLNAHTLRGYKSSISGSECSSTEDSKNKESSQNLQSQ

[2] = test system: castrated male cynomolgus monkeys; experiment: Compound IV studies on castrated monkeys, 90 days (Example 22); assay type: in vivo, cynomolgus monkey
[3] = 1000 mg Compound IV, baseline to Day 120
[4] = preliminary analysis, Compound IV 2000 mg daily (41 assessed) or Lupron Depot (49 assessed)

## O=C(c1ccc(O)c(F)c1)N(c1ccc(O)cc1)c1ccc(F)cc1 [Compound IV, 3-fluoro-N-(4-fluorophenyl)-4-hydroxy-N-(4-hydroxyphenyl)benzamide]
[1]; 1000 mg
  Median free testosterone in castrate men (total testosterone ≦50 ng/dL): 0.4 pg/mL
  Median increase in SHBG: 495%
[1]; 1000 mg Compound IV (n = 53)
  Castrated (%) at Day 28: 49%
  Castrated (%) on both Day 28 and Day 60: 30%
  No. Castrated at Day 28: 26
  No. Castrated on both Day 28 and Day 60: 16
[1]; 1000 mg Compound IV arm
  Subjects that achieved castration (total T<50 ng/dL) by Day 60: 43.4%
[1]; [3]
  Bone specific alkaline phosphatase (BSAP) percentage change: −26.3%
  C-terminal telopeptides (CTX) percentage change: −55.3%
[1]; 1000 mg Compound IV
  % Reduction on PSA at Day 28: 84%
  Mean Free T at Day 28: 1.0 ± 0.8 pg/mL
  Mean Total T at Day 28: 25 ± 15 ng/dL
[1]; 1000 mg QD, D28
  Castration (%): 50%
[1]; 1000 mg QD, D60
  Castration (%): 59.4%
[1]; 1000 mg QD, Ever
  Castration (%): 61.5%
[1]; 1000 mg arm
  Median free testosterone: 0.4 pg/mL
[1]; 1000 mg dose arm
  Subjects with a venous thromboembolism event (VTE): 9 subjects
[1]; 2000 mg
  Median free testosterone in castrate men (total testosterone ≦50 ng/dL): 0.3 pg/mL
  Median increase in SHBG: 583%
[1]; 2000 mg Compound IV (n = 55)
  Castrated (%) at Day 28: 56%
  Castrated (%) on both Day 28 and Day 60: 51%
  No. Castrated at Day 28: 31
  No. Castrated on both Day 28 and Day 60: 28
[1]; 2000 mg Compound IV arm
  Subjects that achieved castration (total T<50 ng/dL) by Day 60: 63.6%
[1]; 2000 mg Compound IV, baseline to Day 120
  Bone specific alkaline phosphatase (BSAP) percentage change: −22.6%
[1]; 2000 mg Compound IV
  % Reduction on PSA at Day 28: 73%
  Mean Free T at Day 28: 0.7 ± 0.7 pg/mL
  Mean Total T at Day 28: 19 ± 9 ng/dL
[1]; 2000 mg QD, D28
  Castration (%): 31%
[1]; 2000 mg QD, D60
  Castration (%): 79.6%
[1]; 2000 mg QD, Ever
  Castration (%): 84.6%
[1]; 2000 mg arm
  Median free testosterone: 0.3 pg/mL
[1]; 2000 mg dose arm
  Subjects with a venous thromboembolism event (VTE): 2 subjects
[1]; 28 days on therapy
  Percentage of treated ADT naïve patients (castrate population) below the Free T cutoff of 0.5 pg/ml: 28.3%
[1]; 45 days on therapy
  Percentage of treated ADT naïve patients (castrate population) below the Free T cutoff of 0.5 pg/ml: 50.9%
[1]; 120 days on therapy
  Percentage of treated ADT naïve patients (castrate population) below the Free T cutoff of 0.5 pg/ml: 58.1%
[1]; Day 90 visits
  Rate of hot flashes relative to that in the leuprolide treated group: ≤ 25%
[1]; Study 2 (FIG. 35)
  PSA level reached on average: < 0.2 µg/L
[1]; Study 2, 1000 mg daily (n = 53), Day 1 to Day 28
  Change in serum IGF-1 level: -75.2 ± 25.6 ng/mL
[1]; Study 2, 1000 mg daily (n = 53), Day 1 to Day 60
  Change in serum IGF-1 level: -73.7 ± 29.2 ng/mL
[1]; Study 2, 1000 mg daily (n = 53), Day 1 to Day 90
  Change in serum IGF-1 level: -73.1 ± 25.1 ng/mL
[1]; Study 2, 1000 mg daily (n = 53), Day 1 to Day 360
  Change in serum IGF-1 level: -35.2 ± 40.5 ng/mL
[1]; Study 2, 2000 mg daily (n = 55), Day 1 to Day 28
  Change in serum IGF-1 level: -78.6 ± 38.3 ng/mL
[1]; Study 2, 2000 mg daily (n = 55), Day 1 to Day 60
  Change in serum IGF-1 level: -77.7 ± 39.9 ng/mL
[1]; Study 2, 2000 mg daily (n = 55), Day 1 to Day 90
  Change in serum IGF-1 level: -72.7 ± 24.9 ng/mL
[1]; Study 2, 2000 mg daily (n = 55), Day 1 to Day 360
  Change in serum IGF-1 level: -33.4 ± 45.2 ng/mL
[1]; Study 2, all patients (FIG. 37)
  Mean SHBG for PSA responders (>50% reduction): 399%+85
[1]; day 90
  Reduction in reported hot flashes: greater than 4 fold
[1]; in vivo
  Increase in SHBG levels in men that responded: 200-600%
[1]; [4]
  Number of Subjects that Experienced a Hot Flash: 2
  Percent of Subjects that Experienced a Hot Flash: 5%
[1]; treatment naive patients (Study 2 and Study 5), after 28 days
  Induction of baseline SHBG: 150-700%
[1]; treatment naïve patients (Studies 2 and 5), after 7 days of therapy
  Patients with at least a 50% reduction in % FreeT: 81%
[1]; treatment naïve patients (Studies 2 and 5), after a month
  Patients with both at least a 50% reduction in % FreeT and a 50% reduction in PSA from baseline: 80%
[1]; treatment naïve patients, after 28 days
  Molar ratio of SHBG to Total T relative to leuprolide acetate treated patients: 3-7 fold
[1]; treatment naïve patients, day 28
  Drop in % FreeT: 70%
Rat ER-β
  Fold less potency to stimulate ERβ-mediated transcription compared to estradiol: ~1400 fold
[2]; 1, 10, 100 mg/kg/day oral (groups 4, 5 and 6), within four weeks
  Serum PSA levels in castrate animals: significantly suppressed
[2]; after thirteen weeks of treatment
  Mean prostate weights at necropsy: significantly reduces
[2]; castrated animals treated with Compound IV
  Testosterone flare: not observed
